Assay results reported in patent US7588788B2, “Immune modulation and anti-allergy activities of Zingiber zerumbet” (Wholesome Life Science Co., Ltd., priority 2004, dated 2009).

What was measured:
[1] = system: Rat Basophilic Leukemia-1 (RBL-1) cell, LTC4 secretion; experiment: LTC4 released by A23187 stimulated leukemia cells (ELISA); assay type: cell-based; details: compound identified from the most active fraction
Description: Cell culture and drug treatment: Rat Basophilic Leukemia-1 (RBL-1) was purchased from Food Industry Research and Development Institute (CCRC 60198, ATCC CRL-1378), and cultured in MEM-alpha medium (Gibco, 12000). All trans-retinoic acid (1 μg/ml) was added to a 3.5 cm diameter well (6-well plate) at 2×10^6 cells/2 ml/well. Plates were then incubated at 37° C. with 5% CO2 in air for 16 hr. Various volumes of ZZ samples were added to the wells to make the appropriate final concentrations (0, 0.5, 5, 50 μg/ml) and incubated for 2 more hours. A23187 (calcium ionophore) was added to each well to reach the final concentration of 10 μM to stimulate RBL-1 cells to release LTC4/cLTs for 15 min. The mediums in the wells were centrifuged at 5000 rpm for 10 min to obtain the supernatant for ELISA assay.
LTC4/cLTs ELISA assay: The supernatants of the cell cultures were diluted into appropriate concentrations before the EIA analysis for LTC4/cLTs. Analysis was performed according to the procedures provided by the manufacturer.

Th1/Th2 immune responses = experiment: Active compound identification by in vitro bioactive screening of purification fractions; assay type: cell-based; details: compound identified from active fractions

Structure (SMILES)	effect of suppressing LTC4 [1]	increase of the IFN-γ/IL-4 gene expression ratio (Th1/Th2 immune responses)
COc1c(-c2ccc(O)cc2)oc2cc(O)cc(O)c2c1=O [5,7-dihydroxy-2-(4-hydroxy-phenyl)-3-methoxy-chromen-4-one]	active compound	
C/C1=C\CC(C)(C)/C=C/C(=O)/C(C)=C/CC1 [Zerumbone, zerumbone]		active ingredient
